Measured values reported in patent publication US20260125382A1, “COMPOUNDS FOR INHIBITING OR DEGRADING CDK2 AND/OR CDK9 AND MEDICINAL USE THEREOF” (KOREA RESEARCH INSTITUTE OF CHEMICAL TECHNOLOGY, priority 2022, published 2026).

Key:
CDK2 = target: T1, CDK2 (Homo sapiens, UniProt P24941); assay: CDK protein degradation activity (Western blotting), CDK2; assay type: cell-based; conditions: MDA-MB-231 cells, 16 hours, Western blot
T1 construct: endogenous in cells; host or cells: MDA-MB-231
Outline: (§1)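 Seed MDA-MB-231 cells; next day add compound to 100 nM, 1 μM or 10 μM final, or DMSO. After 16 h, harvest and lyse in Triton X-100 buffer, run SDS-PAGE, probe for CDK2, CDK9 and tubulin.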

CDK9 = target: T2, CDK9 (Homo sapiens, UniProt P50750); assay: CDK protein degradation activity (Western blotting), CDK9; assay type: cell-based; conditions: MDA-MB-231 cells, 16 hours, Western blot
T2 construct: endogenous in cells; host or cells: MDA-MB-231
Outline: as §1

T2 sequence (P50750 whole entry): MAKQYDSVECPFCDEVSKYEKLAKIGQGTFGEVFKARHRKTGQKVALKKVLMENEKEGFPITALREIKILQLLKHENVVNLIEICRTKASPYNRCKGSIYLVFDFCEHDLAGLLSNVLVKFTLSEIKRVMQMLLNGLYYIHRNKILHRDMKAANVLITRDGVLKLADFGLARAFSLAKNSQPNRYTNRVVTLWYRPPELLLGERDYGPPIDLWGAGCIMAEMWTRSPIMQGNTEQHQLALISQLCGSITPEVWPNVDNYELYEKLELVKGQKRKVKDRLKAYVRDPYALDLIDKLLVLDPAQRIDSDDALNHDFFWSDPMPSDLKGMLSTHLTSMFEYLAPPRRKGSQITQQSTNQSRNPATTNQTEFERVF

Row | SMILES | Enzyme degradation CDK2 (% remaining) @ 0.1 μM (CDK2) | Enzyme degradation CDK2 (% remaining) @ 1 μM (CDK2) | Enzyme degradation CDK2 (% remaining) @ 10 μM (CDK2) | Enzyme degradation CDK9 (% remaining) @ 0.1 μM (CDK9) | Enzyme degradation CDK9 (% remaining) @ 1 μM (CDK9) | Enzyme degradation CDK9 (% remaining) @ 10 μM (CDK9)
1 | Cc1cccc(C(=O)NC2CC(n3cnc4c(Nc5ccc(N6CCN(C7CC8(CCN(C(=O)C9CCN(c%10ccc%11c(c%10)C(=O)N([C@H]%10CCC(=O)NC%10=O)C%11=O)CC9)CC8)C7)CC6)cc5)ncnc43)C2)n1 (stereo partly drawn) [Compound 403, N-((1s,3s)-3-(6-((4-(4-(7-(1-(2-(2,6-dioxopiperidin-3-yl)-1,3-dioxoisoindolin-5-yl)piperidin-4-carbonyl)-7-azaspiro[3.5]nonan-2-yl)piperazin-1-yl)phenyl)amino)-9H-purin-9-yl)cyclobutyl)-6-methylpicolinamide] | 60% | 60% | 90% | 0/0/0% | 0/0/0% | 0/0/0%
2 | Cc1cccc(C(=O)NC2CC(n3cnc4c(NCCC5CCN(CC6CCN(C(=O)C7CN(c8ccc9c(c8)C(=O)N([C@H]8CCC(=O)NC8=O)C9=O)C7)CC6)CC5)ncnc43)C2)n1 (stereo partly drawn) [Compound 309, N-((1s,3s)-3-(6-((2-(1-((1-(1-(2-(2,6-dioxopiperidin-3-yl)-1,3-dioxoisoindolin-5-yl)azetidin-3-carbonyl)piperidin-4-yl)methyl)piperidin-4-yl)ethyl)amino)-9H-purin-9-yl)cyclobutyl)-6-methylpicolinamide] | 90% | 80% | 100% | 0/0/0% | 0/0/0% | 0/0/0%
3 | O=C1CC[C@@H](c2ccc(OCC(=O)N3CC(N4CCC5(CC4)CC(N4CCN(c6ccc(Nc7ncnc8c7ncn8[C@H]7C[C@@H](NC(=O)Cc8ccccc8)C7)cc6)CC4)C5)C3)cc2)C(=O)N1 [Compound 273, N-((1s,3s)-3-(6-((4-(4-(7-(1-(2-(4-(2,6-dioxopiperidin-3-yl)phenoxy)acetyl)azetidin-3-yl)-7-azaspiro[3.5]nonan-2-yl)piperazin-1-yl)phenyl)amino)-9H-purin-9-yl)cyclobutyl)-2-phenylacetamide] | 100% | 70% | 50% | 20% | 10% | 10%
4 | O=C1CCC(N2C(=O)c3ccc(N4CCC(CN5CCC(CCNc6ncnc7c6ncn7[C@H]6C[C@@H](NC(=O)c7c(Cl)cccc7Cl)C6)CC5)CC4)cc3C2=O)C(=O)N1 (stereo partly drawn) [Compound 396, 2,6-dichloro-N-((1s,3s)-3-(6-((2-(1-((1-(2-(2,6-dioxopiperidin-3-yl)-1,3-dioxoisoindolin-5-yl)piperidin-4-yl)methyl)piperidin-4-yl)ethyl)amino)-9H-purin-9-yl)cyclobutyl)benzamide] | 20% | 30% | 30% | 20/20/20% | 20/20/20% | 20/20/20%
5 | O=C1CC[C@H](n2nnc3ccc(N4CCC(CN5CCN(c6ccc(Nc7ncnc8c7ncn8C7CC(NC(=O)c8cccc(Cl)n8)C7)cc6)CC5)CC4)cc3c2=O)C(=O)N1 (stereo partly drawn) [Compound 417, 6-chloro-N-((1s,3s)-3-(6-((4-(4-((1-(3-(2,6-dioxopiperidin-3-yl)-4-oxo-3,4-dihydrobenzo[d][1,2,3]triazin-6-yl)piperidin-4-yl)methyl)piperazin-1-yl)phenyl)amino)-9H-purin-9-yl)cyclobutyl)picolinamide] | 10% | 0% | 0% | 10/10/10% | 10/10/10% | 10/10/10%
6 | Cc1cccc(C(=O)NC2CC(n3cnc4c(Nc5ccc(N6CCN(CC7CCN(c8ccc9nnn([C@H]%10CCC(=O)NC%10=O)c(=O)c9c8)CC7)CC6)cc5)ncnc43)C2)n1 (stereo partly drawn) [Compound 378, N-((1s,3s)-3-(6-((4-(4-((1-(3-(2,6-dioxopiperidin-3-yl)-4-oxo-3,4-dihydrobenzo[d][1,2,3]triazin-6-yl)piperidin-4-yl)methyl)piperazin-1-yl)phenyl)amino)-9H-purin-9-yl)cyclobutyl)-6-methylpicolinamide] | 10/10/10% | 10/10/10% | 10/10/10% | 0/0/0% | 0/0/0% | 0/0/0%
7 | Cc1cccc(C(=O)NC2CC(n3cnc4c(NCCCN5CCN(C(=O)CNc6cccc7c6C(=O)N([C@@H]6CCC(=O)NC6=O)C7=O)CC5)ncnc43)C2)n1 (stereo partly drawn) [Compound 139, N-((1r,3r)-3-(6-((3-(4-((2-(2,6-dioxopiperidin-3-yl)-1,3-dioxoisoindolin-4-yl)glycyl)piperazin-1-yl)propyl)amino)-9H-purin-9-yl)cyclobutyl)-6-methylpicolinamide] | 80% | 90% | 80% | 80% | 90% | 70%
8 | O=C1CC[C@H](N2C(=O)c3ccc(NCC(=O)N4CCC5(CC4)CC(N4CCC(c6ccc(Nc7ncnc8c7ncn8[C@H]7C[C@@H](NC(=O)Cc8ccccc8)C7)cc6)CC4)C5)cc3C2=O)C(=O)N1 (racemic) [Compound 296, N-((1s,3s)-3-(6-((4-(1-(7-((2-(2,6-dioxopiperidin-3-yl)-1,3-dioxoisoindolin-5-yl)glycyl)-7-azaspiro[3.5]nonan-2-yl)piperidin-4-yl)phenyl)amino)-9H-purin-9-yl)cyclobutyl)-2-phenylacetamide] | 20% | 0% | 0% | 0/0/0% | 0/0/0% | 0/0/0%

Now from value to compound:

Row | Enzyme degradation CDK2 (% remaining) @ 0.1 μM (CDK2) | Enzyme degradation CDK2 (% remaining) @ 1 μM (CDK2) | Enzyme degradation CDK2 (% remaining) @ 10 μM (CDK2) | Enzyme degradation CDK9 (% remaining) @ 0.1 μM (CDK9) | Enzyme degradation CDK9 (% remaining) @ 1 μM (CDK9) | Enzyme degradation CDK9 (% remaining) @ 10 μM (CDK9) | SMILES
9 | 70% | 40% | 70% | 20% | 0% | 0% | O=C1CC[C@@H](c2ccc(OCC(=O)N3CCC(CC(=O)N4CCN(c5ccc(Nc6ncnc7c6ncn7C6CC(NC(=O)Cc7ccccc7)C6)cc5)CC4)CC3)cc2)C(=O)N1 (stereo partly drawn) [Compound 203, N-((1s,3s)-3-(6-((4-(4-(2-(1-(2-(4-(2,6-dioxopiperidin-3-yl)phenoxy)acetyl)piperidin-4-yl)acetyl)piperazin-1-yl)phenyl)amino)-9H-purin-9-yl)cyclobutyl)-2-phenylacetamide]
10 | 100% | 80% | 50% | 70% | 20% | 0% | O=C1CC[C@H](N2C(=O)c3cccc(N4CCN(CCCN5CCN(c6ccc(Nc7ncnc8c7ncn8C7CC(NC(=O)Cc8ccccc8)C7)cc6)CC5)CC4)c3C2=O)C(=O)N1 (stereo partly drawn) [Compound 238, N-((1s,3s)-3-(6-((4-(4-(3-(4-(2-(2,6-dioxopiperidin-3-yl)-1,3-dioxoisoindolin-4-yl)piperazin-1-yl)propyl)piperazin-1-yl)phenyl)amino)-9H-purin-9-yl)cyclobutyl)-2-phenylacetamide]
11 | 50% | 30% | 20% | 50% | 20% | 0% | O=C1CCC(N2C(=O)c3cccc(OCC(=O)N4CCC(CCCN5CCN(c6ccc(Nc7ncnc8c7ncn8[C@H]7C[C@@H](NC(=O)Cc8ccccc8)C7)cc6)CC5)CC4)c3C2=O)C(=O)N1 (stereo partly drawn) [Compound 254, N-((1s,3s)-3-(6-((4-(4-(3-(1-(2-((2-(2,6-dioxopiperidin-3-yl)-1,3-dioxoisoindolin-4-yl)oxy)acetyl)piperidin-4-yl)propyl)piperazin-1-yl)phenyl)amino)-9H-purin-9-yl)cyclobutyl)-2-phenylacetamide]
12 | 40% | 30% | 50% | 50% | 40% | 0% | O=C1CC[C@H](N2C(=O)c3ccc(N4CCC(CN5CCC(CNc6ncnc7c6ncn7C6CC(NC(=O)Cc7ccccc7)C6)CC5)CC4)cc3C2=O)C(=O)N1 (stereo partly drawn) [Compound 181, N-((1s,3s)-3-(6-(((1-((1-(2-(2,6-dioxopiperidin-3-yl)-1,3-dioxoisoindolin-5-yl)piperidin-4-yl)methyl)piperidin-4-yl)methyl)amino)-9H-purin-9-yl)cyclobutyl)-2-phenylacetamide]
13 | 10% | 0% | 0% | 50% | 0% | 0% | O=C1CC[C@H](N2C(=O)c3ccc(N4CCN(CCC5CCN(c6ccc(Nc7ncnc8c7ncn8[C@H]7C[C@@H](NC(=O)Cc8ccccc8)C7)cc6)CC5)CC4)cc3C2=O)C(=O)N1 [Compound 338, N-((1s,3s)-3-(6-((4-(4-(2-(4-(2-(2,6-dioxopiperidin-3-yl)-1,3-dioxoisoindolin-5-yl)piperazin-1-yl)ethyl)piperidin-1-yl)phenyl)amino)-9H-purin-9-yl)cyclobutyl)-2-phenylacetamide]
